Measurements published in patent publication US6706757B2, “Chroman derivatives as 5-hydroxytryptamine-6 ligands” (Wyeth, priority 2001, dated 2004).
Structures can show the parent of a compound that is named as a salt.

Target: T1, human cloned 5-HT6 receptors (Homo sapiens, UniProt P50406)
T1 construct: expressed in transfected cells; host or cells: HeLa cells (membrane preparation)
Test: 5-HT6 binding affinity, [3H]-LSD displacement on membranes of Hela cells expressing human cloned 5-HT6 receptors
Settings: [3H]-LSD 3.0 nM, Hela cell membranes, 120 min at room temperature
Procedure: The affinity of test compounds for the serotonin 5-HT6 receptor is evaluated in the following manner. Cultured Hela cells expressing human cloned 5-HT6 receptors are harvested and centrifuged at low speed (1,000×g) for 10.0 min to remove the culture media. The harvested cells are suspended in half volume of fresh physiological phosphate buffered saline solution and recentrifuged at the same speed. This operation is repeated. The collected cells are then homogenized in ten volumes of 50 mM Tris.HCl (pH 7.4) and 0.5 mM EDTA. The homogenate is centrifuged at 40,000×g for 30.0 min and the precipitate is collected. The obtained pellet is resuspended in 10 volumes of Tris.HCl buffer and recentrifuged at the same speed. The final pellet is suspended in a small volume of Tris.HCl buffer and the tissue protein content is determined in aliquots of 10-25 μl volumes. Bovine Serum Albumin is used as the standard in the protein determination according to the method described in Lowry et al., J. Biol. Chem., 193:265 (1951). The volume of the suspended cell membranes is adjusted to give a tissue protein concentration of 1.0 mg/ml of suspension. The prepared membrane suspension (10 times concentrated) is aliquoted in 1.0 ml volumes and stored at −70° C. until used in subsequent binding experiments.
Binding experiments are performed in a 96 well microtiter plate format, in a total volume of 200 μl. […] The test compounds are added in 20.0 μl volume.
The reaction is allowed to proceed in the dark for 120 min at room temperature, at which time, the bound ligand-receptor complex is filtered off on a 96 well unifilter with a Packard Filtermate® 196 Harvester. The bound complex caught on the filter disk is allowed to air dry and the radioactivity is measured in a Packard TopCount® equipped with six photomultiplier detectors, after the addition of 40.0 μl Microscint®-20 scintillant to each shallow well. The unifilter plate is heat-sealed and counted in a PackardTopCount® with a tritium efficiency of 31.0%.
Binding in the presence of varying concentrations of test compound is expressed as a percentage of specific binding in the absence of test compound. The results are plotted as log % bound versus log concentration of test compound. […] A linear regression line of data points is plotted, from which the IC50 value is determined and the Ki value is determined based upon the following equation: […]
where L is the concentration of the radioactive ligand used and KD is the dissociation constant of the ligand for the receptor, both expressed in nM.

T1 sequence (P50406 whole entry): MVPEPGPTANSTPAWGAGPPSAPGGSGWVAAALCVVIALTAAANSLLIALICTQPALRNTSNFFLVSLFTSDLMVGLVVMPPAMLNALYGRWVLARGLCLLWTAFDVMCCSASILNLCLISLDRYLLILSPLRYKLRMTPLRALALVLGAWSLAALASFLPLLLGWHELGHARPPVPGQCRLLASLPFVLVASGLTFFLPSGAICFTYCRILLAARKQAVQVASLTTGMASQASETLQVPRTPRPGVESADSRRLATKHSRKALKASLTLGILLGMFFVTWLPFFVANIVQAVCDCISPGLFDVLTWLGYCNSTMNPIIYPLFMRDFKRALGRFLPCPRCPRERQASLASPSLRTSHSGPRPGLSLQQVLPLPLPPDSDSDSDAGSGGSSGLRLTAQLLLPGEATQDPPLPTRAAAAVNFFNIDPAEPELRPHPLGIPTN

| SMILES | Ki [nM] |
| --- | --- |
| O=S(=O)(Nc1ccc2c(c1)OC(CNCCCO)CC2)c1ccccc1 (centres unmarked) [Example 5, N-{2-[(3-Hydroxypropylamino)-methyl]chroman-7-yl}benzenesulfonamide Hemifumarate salt] | 5 |
| COc1cccc(CNCC2CCc3ccc(NS(=O)(=O)c4ccccc4)cc3O2)c1 (centres unmarked) [Example 6, N-(2-{[(3-methoxybenzyl)amino]methyl}-3,4-dihydro-2H-chromen-7-yl)benzenesulfonamide] | 4 |
| CCCCOCCCNCC1CCc2ccc(NS(=O)(=O)c3ccccc3)cc2O1 (centres unmarked) [Example 7, N-(2-{[(3-butoxypropyl)amino]methyl}-3,4-dihydro-2H-chromen-7-yl)benzenesulfonamide] | 2 |
| O=S(=O)(Nc1ccc2c(c1)OC(CNCc1ccccc1)CC2)c1ccccc1 (centres unmarked) [Example 8, N-{2-[(benzylamino)methyl]-3,4-dihydro-2H-chromen-7-yl}benzenesulfonamide] | 2 |
| O=S(=O)(Nc1ccc2c(c1)OC(CNCCCOc1ccccc1)CC2)c1ccccc1 (centres unmarked) [Example 9, N-(2-{[(3-phenoxypropyl)amino]methyl}-3,4-dihydro-2H-chromen-7-yl)benzenesulfonamide] | 2 |
| C[C@@H](NCC1CCc2ccc(NS(=O)(=O)c3ccccc3)cc2O1)c1ccccc1 (stereo partly drawn) [Example 10, N-[2-({[(1R)-1-phenylethyl]amino}methyl)-3,4-dihydro-2H-chromen-7-yl]benzenesulfonamide] | 1 |
| O=S(=O)(Nc1ccc2c(c1)OC(CNCc1ccc3c(c1)OCO3)CC2)c1ccccc1 (centres unmarked) [Example 11, N-(2-{[(1,3-benzodioxol-5-ylmethyl)amino]methyl}-3,4-dihydro-2H-chromen-7-yl)benzenesulfonamide] | 2 |
| O=S(=O)(Nc1ccc2c(c1)OC(CNCc1cccnc1)CC2)c1ccccc1 (centres unmarked) [Example 12, N-(2-{[(pyridin-3-ylmethyl)amino]methyl}-3,4-dihydro-2H-chromen-7-yl)benzenesulfonamide] | 5 |
| O=S(=O)(Nc1ccc2c(c1)OC(CNC1CCc3ccccc31)CC2)c1ccccc1 (centres unmarked) [Example 13, N-{2-[(2,3-dihydro-1H-inden-1-ylamino)methyl]-3,4-dihydro-2H-chromen-7-yl}benzenesulfonamide] | 7 |
| C[C@H](NCC1CCc2ccc(NS(=O)(=O)c3ccccc3)cc2O1)c1ccccc1 (stereo partly drawn) [Example 14, N-[2-({[(1S)-1-phenylethyl]amino}methyl)-3,4-dihydro-2H-chromen-7-yl]benzenesulfonamide] | 10 |
| O=S(=O)(Nc1ccc2c(c1)OC(CNCc1ccncc1)CC2)c1ccccc1 (centres unmarked) [Example 15, N-(2-{[(pyridin-4-ylmethyl)amino]methyl}-3,4-dihydro-2H-chromen-7-yl)benzenesulfonamide] | 17 |
| O=S(=O)(Nc1ccc2c(c1)OC(CN[C@@H](CO)c1ccccc1)CC2)c1ccccc1 (stereo partly drawn) [Example 16, N-[2-({[(1R)-2-hydroxy-1-phenylethyl]amino}methyl)-3,4-dihydro-2H-chromen-7-yl]benzenesulfonamide] | 5 |
| O=S(=O)(Nc1ccc2c(c1)OC(CNC(Cc1ccccc1)c1ccccc1)CC2)c1ccccc1 (centres unmarked) [Example 17, N-(2-{[(1,2-diphenylethyl)amino]methyl}-3,4-dihydro-2H-chromen-7-yl)benzenesulfonamide] | 84 |
| CC(C)(CO)NCC1CCc2ccc(NS(=O)(=O)c3ccccc3)cc2O1 (centres unmarked) [Example 18, N-(2-{[(2-hydroxy-1,1-dimethylethyl)amino]methyl}-3,4-dihydro-2H-chromen-7-yl)benzenesulfonamide] | 41 |
| CC(C)NCC1CCc2ccc(NS(=O)(=O)c3ccccc3)cc2O1 (centres unmarked) [Example 19, N-{2-[(isopropylamino)methyl]-3,4-dihydro-2H-chromen-7-yl}benzenesulfonamide] | 16 |
| CC(CCc1ccccc1)NCC1CCc2ccc(NS(=O)(=O)c3ccccc3)cc2O1 (centres unmarked) [Example 20, N-(2-{[(1-methyl-3-phenylpropyl)amino]methyl}-3,4-dihydro-2H-chromen-7-yl)benzenesulfonamide] | 6 |

| SMILES | Ki [nM] |
| --- | --- |
| CC(C)CCCC(C)NCC1CCc2ccc(NS(=O)(=O)c3ccccc3)cc2O1 (centres unmarked) [Example 21, N-(2-{[(1,5-dimethylhexyl)amino]methyl}-3,4-dihydro-2H-chromen-7-yl)benzenesulfonamide] | 8 |
| CC(C)C[C@H](CO)NCC1CCc2ccc(NS(=O)(=O)c3ccccc3)cc2O1 (stereo partly drawn) [Example 22, N-[2-({[(1R)-1-(hydroxymethyl)-3-methylbutyl]amino}methyl)-3,4-dihydro-2H-chromen-7yl]benzenesulfonamide] | 3 |
| O=S(=O)(Nc1ccc2c(c1)OC(CN1CCCCC1CCO)CC2)c1ccccc1 (centres unmarked) [Example 23, N-(2-{[2-(2-hydroxyethyl)piperidin-1-yl]methyl}-3,4-dihydro-2H-chromen-7-yl)benzenesulfonamide] | 35 |
| CC1CCCC(C)N1CC1CCc2ccc(NS(=O)(=O)c3ccccc3)cc2O1 (centres unmarked) [Example 24, N-{2-[(2,6-dimethylpiperidin-1-yl)methyl]-3,4-dihydro-2H-chromen-7-yl}benzenesulfonamide] | 72 |
| O=S(=O)(Nc1ccc2c(c1)OC(CN1CCOCC1)CC2)c1ccccc1 (centres unmarked) [Example 25, N-[2-(morpholin-4-ylmethyl)-3,4-dihydro-2H-chromen-7-yl]benzenesulfonamide] | 26 |
| O=S(=O)(Nc1ccc2c(c1)OC(CN1CCSCC1)CC2)c1ccccc1 (centres unmarked) [Example 26, N-[2-(thiomorpholin-4-ylmethyl)-3,4-dihydro-2H-chromen-7-yl]benzenesulfonamide] | 9 |
| C[C@@H](NCC1CCc2ccc(NS(=O)(=O)c3ccccc3)cc2O1)C1CCCCC1 (stereo partly drawn) [Example 27, N-[2-({[(1R)-1-cyclohexylethyl]amino}methyl)-3,4-dihydro-2H-chromen-7-yl]benzenesulfonamide] | 7 |
| O=S(=O)(Nc1ccc2c(c1)OC(CNCCCO)CC2)c1ccc2ccccc2c1 (centres unmarked) [Example 28, N-(2-{[(3-Hydroxypropyl)amino]methyl}-3,4-dihydro-2H-chromen-7-yl)naphthalene-2-sulfonamide] | 5 |
| COc1ccc(S(=O)(=O)Nc2ccc3c(c2)OC(CNCCCO)CC3)cc1 (centres unmarked) [Example 29, N-(2-{[(3-hydroxypropyl)amino]methyl}-3,4-dihydro-2H-chromen-7-yl)-4-methoxybenzenesulfonamide] | 39 |
| O=S(=O)(Nc1ccc2c(c1)OC(CNCCCO)CC2)c1ccc(F)cc1 (centres unmarked) [Example 30, 4-fluoro-N-(2-{[(3-hydroxypropyl)amino]methyl}-3,4-dihydro-2H-chromen-7-yl)benzenesulfonamide] | 49 |
| O=S(=O)(Nc1ccc2c(c1)OC(CNCCCO)CC2)c1ccc(Cl)cc1 (centres unmarked) [Example 31, 4-chloro-N-(2-{[(3-hydroxypropyl)amino]methyl}-3,4-dihydro-2H-chromen-7-yl)benzenesulfonamide] | 11 |
| C[C@@H](NCC1CCc2ccc(NS(=O)(=O)c3cccc4nonc34)cc2O1)c1ccccc1 (stereo partly drawn) [Example 32, N-[2-({[(1R)-1-Phenylethyl]amino}methyl)-3,4-dihydro-2H-chromen-7-yl]-2,1,3-benzoxadiazole-4-sulfonamide] | 5 |
| C[C@@H](NCC1CCc2ccc(NS(=O)(=O)c3c(Cl)nc4sccn34)cc2O1)c1ccccc1 (stereo partly drawn) [Example 33, 6-chloro-N-[2-({[(1R)-1-phenylethyl]amino}methyl)-3,4-dihydro-2H-chromen-7-yl]imidazo[2,1-b][1,3]thiazole-5-sulfonamide] | 3 |
| C[C@@H](NCC1CCc2ccc(NS(=O)(=O)c3ccc(Br)s3)cc2O1)c1ccccc1 (stereo partly drawn) [Example 34, 5-bromo-N-[2-({[(1R)-1-phenylethyl]amino}methyl)-3,4-dihydro-2H-chromen-7-yl]-2-thiophenesulfonamide] | 5 |
| CC(=O)Nc1nc(C)c(S(=O)(=O)Nc2ccc3c(c2)OC(CN[C@H](C)c2ccccc2)CC3)s1 (stereo partly drawn) [Example 35, N-[4-methyl-5-({[2-({[(1R)-1-phenylethyl]amino}methyl)-3,4-dihydro-2H-chromen-7-yl]amino}sulfonyl)-1,3-thiazol-2-yl]acetamide] | 7 |
| Cc1c(S(=O)(=O)Nc2ccc3c(c2)OC(CN[C@H](C)c2ccccc2)CC3)sc2ccc(Cl)cc12 (stereo partly drawn) [Example 36, 5-chloro-3-methyl-N-[2-({[(1R)-1-phenylethyl]amino}methyl)-3,4-dihydro-2H-chromen-7-yl]-1-benzothiophene-2-sulfonamide] | 45 |
